Test results taken from PubChem BioAssay (NCI).
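Values below derive from 48-hour exposures of cells grown in 96-well plates, with endpoints linearly interpolated between the two concentrations bracketing the appropriate inhibition level. TGI denotes the concentration required for complete inhibition of growth.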

What was measured:
Assay in all cases: DTP human tumour cell line panel, 48 h
[1] = tested on: 786-0 renal
[2] = tested on: A498 renal
[3] = tested on: A549 NSCLC
[4] = tested on: ACHN renal
[5] = tested on: BT-549 breast
[6] = tested on: CAKI-1 renal
[7] = tested on: CCRF-CEM leukemia
[8] = tested on: COLO 205 colon
[9] = tested on: DU-145 prostate
[10] = tested on: EKVX NSCLC
[11] = tested on: HCC-2998 colon
[12] = tested on: HCT-116 colon
[13] = tested on: HCT-15 colon
[14] = tested on: HL-60(TB) leukemia
[15] = tested on: HOP-62 NSCLC
[16] = tested on: HOP-92 NSCLC
[17] = tested on: HS 578T breast
[18] = tested on: HT29 colon
[19] = tested on: IGROV1 ovarian
[20] = tested on: K-562 leukemia
[21] = tested on: KM12 colon
[22] = tested on: LOX IMVI melanoma
[23] = tested on: M14 melanoma
[24] = tested on: MALME-3M melanoma
[25] = tested on: MCF7 breast
[26] = tested on: MDA-MB-231 breast
[27] = tested on: MDA-MB-435
[28] = tested on: MDA-N
[29] = tested on: MOLT-4 leukemia
[30] = tested on: NCI-H226 lung
[31] = tested on: NCI-H23 lung
[32] = tested on: NCI-H460 lung
[33] = tested on: NCI-H522 lung
[34] = tested on: NCI/ADR-RES ovarian
[35] = tested on: OVCAR-3 ovarian
[36] = tested on: OVCAR-4 ovarian
[37] = tested on: OVCAR-5 ovarian
[38] = tested on: OVCAR-8 ovarian
[39] = tested on: PC-3 prostate
[40] = tested on: RPMI-8226 leukemia
[41] = tested on: SF-268 CNS
[42] = tested on: SF-295 CNS
[43] = tested on: SF-539 CNS
[44] = tested on: SK-MEL-2 melanoma
[45] = tested on: SK-MEL-28 melanoma
[46] = tested on: SK-MEL-5 melanoma
[47] = tested on: SK-OV-3 ovarian
[48] = tested on: SN12C renal
[49] = tested on: SNB-19 CNS
[50] = tested on: SNB-75 CNS
[51] = tested on: SR leukemia
[52] = tested on: SW-620 colon
[53] = tested on: T-47D breast
[54] = tested on: TK-10 renal
[55] = tested on: U251 CNS
[56] = tested on: UACC-257 melanoma
[57] = tested on: UACC-62 melanoma
[58] = tested on: UO-31 renal
[59] = tested on: RXF 393 renal

## COC(=O)C(Cc1ccccc1)NP(=O)(O)OCC1OC(n2ccc(N)nc2=O)C(O)C1O (configuration not stated)
[1]
  TGI: > 100 µM
[2]
  TGI: > 100 µM
[3]
  TGI: > 100 µM
[4]
  TGI: > 100 µM
[5]
  TGI: > 100 µM
[6]
  TGI: > 100 µM
[7]
  TGI: > 100 µM
[8]
  TGI: > 100 µM
[9]
  TGI: > 100 µM
[10]
  TGI: > 100 µM
[11]
  TGI: > 100 µM
[12]
  TGI: > 100 µM
[13]
  TGI: > 100 µM
[14]
  TGI: > 100 µM
[15]
  TGI: > 100 µM
[16]
  TGI: > 100 µM
[17]
  TGI: > 100 µM
[18]
  TGI: > 100 µM
[19]
  TGI: > 100 µM
[20]
  TGI: > 100 µM
[21]
  TGI: > 100 µM
[22]
  TGI: > 100 µM
[23]
  TGI: > 100 µM
[24]
  TGI: > 100 µM
[25]
  TGI: > 100 µM
[26]
  TGI: > 100 µM
[27]
  TGI: > 100 µM
[28]
  TGI: > 100 µM
[29]
  TGI: > 100 µM
[30]
  TGI: > 100 µM
[31]
  TGI: > 100 µM
[32]
  TGI: > 100 µM
[33]
  TGI: > 100 µM
[34]
  TGI: > 100 µM
[35]
  TGI: > 100 µM
[36]
  TGI: > 100 µM
[37]
  TGI: > 100 µM
[38]
  TGI: > 100 µM
[39]
  TGI: > 100 µM
[40]
  TGI: > 100 µM
[41]
  TGI: > 100 µM
[42]
  TGI: > 100 µM
[43]
  TGI: > 100 µM
[44]
  TGI: > 100 µM
[45]
  TGI: > 100 µM
[46]
  TGI: > 100 µM
[47]
  TGI: > 100 µM
[48]
  TGI: > 100 µM
[49]
  TGI: > 100 µM
[50]
  TGI: > 100 µM
[51]
  TGI: > 100 µM
[52]
  TGI: > 100 µM
[53]
  TGI: > 100 µM
[54]
  TGI: > 100 µM
[55]
  TGI: > 100 µM
[56]
  TGI: > 100 µM
[57]
  TGI: > 100 µM
[58]
  TGI: > 100 µM

## CN(CCCN1CCCC1)CCCN(C)C(=O)Cc1ccc(Cl)c(Cl)c1
[1]
  TGI: 29.2 µM
[2]
  TGI: 28.1 µM
[3]
  TGI: > 53.6 µM
[4]
  TGI: > 68.3 µM
[5]
  TGI: 46.2 µM
[6]
  TGI: 49.1 µM
[7]
  TGI: 23.8 µM
[8]
  TGI: 41.2 µM
[9]
  TGI: > 100 µM
[10]
  TGI: 62.5 µM
[11]
  TGI: 20.6 µM
[12]
  TGI: 39.3 µM
[13]
  TGI: > 87 µM
[14]
  TGI: 37.1 µM
[15]
  TGI: 51 µM
[16]
  TGI: 35.9 µM
[17]
  TGI: 36 µM
[18]
  TGI: 17.5 µM
[19]
  TGI: 67.8 µM
[20]
  TGI: 18.3 µM
[21]
  TGI: 60.5 µM
[22]
  TGI: 27.9 µM
[23]
  TGI: 13.9 µM
[24]
  TGI: 34.6 µM
[25]
  TGI: 31.6 µM
[26]
  TGI: 31.9 µM
[27]
  TGI: 11.7 µM
[28]
  TGI: 16 µM
[29]
  TGI: 32.4 µM
[30]
  TGI: 48 µM
[31]
  TGI: 54.8 µM
[32]
  TGI: 33.8 µM
[33]
  TGI: 32.4 µM
[34]
  TGI: > 100 µM
[35]
  TGI: > 88.4 µM
[36]
  TGI: > 96.1 µM
[37]
  TGI: 78.1 µM
[38]
  TGI: > 100 µM
[39]
  TGI: > 74.4 µM
[40]
  TGI: 22.4 µM
[59]
  TGI: 31.9 µM
[41]
  TGI: > 51.5 µM
[42]
  TGI: 36.2 µM
[43]
  TGI: > 53.2 µM
[44]
  TGI: 28.2 µM
[45]
  TGI: 5.26 µM
[46]
  TGI: 36.3 µM
[47]
  TGI: > 89.6 µM
[48]
  TGI: 70.2 µM
[49]
  TGI: > 72.6 µM
[50]
  TGI: 42.6 µM
[51]
  TGI: 28.2 µM
[52]
  TGI: 50.7 µM
[53]
  TGI: 45.9 µM
[54]
  TGI: 32.1 µM
[55]
  TGI: 29.7 µM
[56]
  TGI: 7.45 µM
[57]
  TGI: 5.04 µM
[58]
  TGI: 9.64 µM
